Active and inactive are the calls of the source.

Four molecules from ChEMBL document CHEMBL1201862, “PubChem BioAssay data set” (2004) can be followed below.

The target of assay [1] is T1, Rac GTPase-activating protein 1 (Homo sapiens, UniProt Q9H0H5).
T1 sequence (Q9H0H5 whole entry): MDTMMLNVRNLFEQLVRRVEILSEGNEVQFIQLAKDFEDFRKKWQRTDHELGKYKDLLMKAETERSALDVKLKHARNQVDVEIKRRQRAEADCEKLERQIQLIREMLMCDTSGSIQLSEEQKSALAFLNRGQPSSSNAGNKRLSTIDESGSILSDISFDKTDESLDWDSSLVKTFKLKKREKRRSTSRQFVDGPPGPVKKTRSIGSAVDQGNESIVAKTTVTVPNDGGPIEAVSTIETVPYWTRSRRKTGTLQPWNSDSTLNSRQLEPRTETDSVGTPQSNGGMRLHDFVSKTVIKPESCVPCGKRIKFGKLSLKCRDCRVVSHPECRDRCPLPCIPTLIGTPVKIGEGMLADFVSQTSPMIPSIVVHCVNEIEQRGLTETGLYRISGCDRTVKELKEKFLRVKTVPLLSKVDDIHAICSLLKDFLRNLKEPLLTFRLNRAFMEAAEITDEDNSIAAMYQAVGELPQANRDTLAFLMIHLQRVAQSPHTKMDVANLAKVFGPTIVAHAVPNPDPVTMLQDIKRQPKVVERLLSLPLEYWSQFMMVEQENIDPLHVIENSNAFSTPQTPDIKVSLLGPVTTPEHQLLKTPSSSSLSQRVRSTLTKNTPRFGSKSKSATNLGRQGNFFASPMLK
The experiment in a line: blockers of MgcRacGAP-driven Rac1 GTP hydrolysis – biochemical, ADP Hunter fluorescence, primary and confirmatory, confirmation (AID 624330). The format is functional.

The target of another assay is SUMO-activating enzyme (Homo sapiens, UniProt Q9UBT2). The experiment in a line: blockers of UBC9-mediated SUMO conjugation – biochemical, AlphaScreen, SUMOylation inhibitor project, confirmation (AID 2018). The format is functional. (Bead proximity is the source of the signal in Alpha formats.)
Assay [2] addresses T2, Sentrin-specific protease 7 (Homo sapiens, UniProt Q9BQF6).
T2 sequence (Q9BQF6 whole entry): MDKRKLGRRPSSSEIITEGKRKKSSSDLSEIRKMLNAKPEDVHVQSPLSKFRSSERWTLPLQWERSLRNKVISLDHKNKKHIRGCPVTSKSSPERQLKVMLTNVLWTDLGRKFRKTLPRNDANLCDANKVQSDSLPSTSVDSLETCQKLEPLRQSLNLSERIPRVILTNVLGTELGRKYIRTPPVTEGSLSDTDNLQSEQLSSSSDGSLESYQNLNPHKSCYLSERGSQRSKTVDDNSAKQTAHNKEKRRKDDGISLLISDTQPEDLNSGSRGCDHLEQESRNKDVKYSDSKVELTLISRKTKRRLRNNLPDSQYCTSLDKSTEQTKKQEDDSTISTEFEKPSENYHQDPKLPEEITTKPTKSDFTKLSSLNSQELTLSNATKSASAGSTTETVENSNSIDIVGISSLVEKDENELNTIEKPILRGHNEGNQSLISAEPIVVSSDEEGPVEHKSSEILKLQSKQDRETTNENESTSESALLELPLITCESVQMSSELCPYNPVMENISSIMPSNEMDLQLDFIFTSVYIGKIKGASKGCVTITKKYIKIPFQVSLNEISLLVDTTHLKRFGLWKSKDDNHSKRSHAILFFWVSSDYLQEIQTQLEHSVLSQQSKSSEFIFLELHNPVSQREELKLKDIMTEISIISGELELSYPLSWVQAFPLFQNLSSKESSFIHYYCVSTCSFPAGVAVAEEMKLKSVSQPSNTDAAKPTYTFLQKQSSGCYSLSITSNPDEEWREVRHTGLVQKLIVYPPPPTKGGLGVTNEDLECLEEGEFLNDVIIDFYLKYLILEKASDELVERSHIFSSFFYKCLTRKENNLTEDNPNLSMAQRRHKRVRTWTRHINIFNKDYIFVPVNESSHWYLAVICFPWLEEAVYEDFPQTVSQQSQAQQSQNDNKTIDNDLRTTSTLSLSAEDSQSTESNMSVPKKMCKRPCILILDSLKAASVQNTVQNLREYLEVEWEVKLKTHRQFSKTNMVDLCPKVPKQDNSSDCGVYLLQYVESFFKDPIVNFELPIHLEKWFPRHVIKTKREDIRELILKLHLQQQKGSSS
The format is functional.

Assay [3] concerns the target T3, Sentrin-specific protease 8 (Homo sapiens, UniProt Q96LD8).
T3 sequence (Q96LD8 whole entry): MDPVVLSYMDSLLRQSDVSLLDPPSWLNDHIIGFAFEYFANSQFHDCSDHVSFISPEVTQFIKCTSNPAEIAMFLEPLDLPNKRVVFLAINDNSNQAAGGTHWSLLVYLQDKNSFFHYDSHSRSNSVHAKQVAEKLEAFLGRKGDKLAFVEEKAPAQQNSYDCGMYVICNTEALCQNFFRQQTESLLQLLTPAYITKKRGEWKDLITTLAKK
The format is functional.

In assay [4] the target is Tyrosine-protein kinase BTK (Homo sapiens, UniProt Q06187). The format is functional.
Assay [5] deals with Serine/threonine-protein kinase PAK 4 (Homo sapiens, UniProt O96013). The format is functional.
The next assay addresses Activated CDC42 kinase 1 (Homo sapiens, UniProt Q07912). The experiment in a line: Navigating the Kinome. Panel member name: ACK1. The format is functional.
The target in another assay is Focal adhesion kinase 1 (Homo sapiens, UniProt Q05397). The format is functional.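 Also: measured as one member of a kinome panel.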
The target in assay [6] is High affinity nerve growth factor receptor (Homo sapiens, UniProt P04629). The format is functional.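 Also: NTRK1 tested as one member of a kinome-wide profiling panel.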
For assay [7], the target named is Receptor-type tyrosine-protein kinase FLT3 (Homo sapiens, UniProt P36888). The format is functional.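 Also: FLT3 was tested as one member of a kinome-wide kinase panel.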
The target of assay [8] is Cyclin-dependent kinase 7 (Homo sapiens, UniProt P50613). The format is functional.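 Also: value comes from a kinome-wide kinase profiling panel in which CDK7 is one member.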
The target in assay [9] is Insulin-like growth factor 1 receptor (Homo sapiens, UniProt P08069). The experiment in a line: Navigating the Kinome. Panel member name: IGF1R. The format is functional.
In assay [10] the target is Dual specificity protein kinase CLK4 (Homo sapiens, UniProt Q9HAZ1). The format is functional.
A further assay deals with Large T antigen (Simian virus 40, UniProt P03070). The format is functional, Betapolyomavirus macacae.
The target in assay [11] is T3, Sentrin-specific protease 8. The format is functional. The source holds these as a separate data set.

Focal adhesion kinase 1, sequence (Q05397 whole entry): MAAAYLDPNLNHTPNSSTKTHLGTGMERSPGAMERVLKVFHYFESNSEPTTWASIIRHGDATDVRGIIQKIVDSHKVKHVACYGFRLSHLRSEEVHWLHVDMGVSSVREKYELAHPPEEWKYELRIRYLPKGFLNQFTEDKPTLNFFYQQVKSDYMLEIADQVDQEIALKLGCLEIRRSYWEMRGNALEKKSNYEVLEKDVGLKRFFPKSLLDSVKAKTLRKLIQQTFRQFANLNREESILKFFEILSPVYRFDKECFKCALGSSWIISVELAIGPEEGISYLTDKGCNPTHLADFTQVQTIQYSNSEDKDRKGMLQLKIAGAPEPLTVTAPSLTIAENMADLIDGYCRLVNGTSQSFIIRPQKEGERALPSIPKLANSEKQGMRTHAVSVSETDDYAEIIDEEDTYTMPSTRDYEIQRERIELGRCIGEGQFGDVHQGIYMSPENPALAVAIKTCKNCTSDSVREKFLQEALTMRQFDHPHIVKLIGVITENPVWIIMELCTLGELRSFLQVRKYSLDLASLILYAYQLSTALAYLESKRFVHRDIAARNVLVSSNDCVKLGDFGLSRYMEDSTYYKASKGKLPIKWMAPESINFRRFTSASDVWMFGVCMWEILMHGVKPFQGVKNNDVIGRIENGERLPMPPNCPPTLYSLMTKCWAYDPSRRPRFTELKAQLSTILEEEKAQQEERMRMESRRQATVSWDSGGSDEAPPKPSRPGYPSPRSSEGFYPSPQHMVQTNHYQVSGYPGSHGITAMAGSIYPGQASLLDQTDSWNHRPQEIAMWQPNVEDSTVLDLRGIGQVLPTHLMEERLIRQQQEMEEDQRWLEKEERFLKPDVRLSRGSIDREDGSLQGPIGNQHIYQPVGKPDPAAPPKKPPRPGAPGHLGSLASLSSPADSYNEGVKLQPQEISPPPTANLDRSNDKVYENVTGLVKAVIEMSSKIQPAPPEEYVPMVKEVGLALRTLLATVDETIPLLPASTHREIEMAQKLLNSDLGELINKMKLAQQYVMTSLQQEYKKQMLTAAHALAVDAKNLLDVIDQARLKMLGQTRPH
Receptor-type tyrosine-protein kinase FLT3, sequence (P36888 whole entry): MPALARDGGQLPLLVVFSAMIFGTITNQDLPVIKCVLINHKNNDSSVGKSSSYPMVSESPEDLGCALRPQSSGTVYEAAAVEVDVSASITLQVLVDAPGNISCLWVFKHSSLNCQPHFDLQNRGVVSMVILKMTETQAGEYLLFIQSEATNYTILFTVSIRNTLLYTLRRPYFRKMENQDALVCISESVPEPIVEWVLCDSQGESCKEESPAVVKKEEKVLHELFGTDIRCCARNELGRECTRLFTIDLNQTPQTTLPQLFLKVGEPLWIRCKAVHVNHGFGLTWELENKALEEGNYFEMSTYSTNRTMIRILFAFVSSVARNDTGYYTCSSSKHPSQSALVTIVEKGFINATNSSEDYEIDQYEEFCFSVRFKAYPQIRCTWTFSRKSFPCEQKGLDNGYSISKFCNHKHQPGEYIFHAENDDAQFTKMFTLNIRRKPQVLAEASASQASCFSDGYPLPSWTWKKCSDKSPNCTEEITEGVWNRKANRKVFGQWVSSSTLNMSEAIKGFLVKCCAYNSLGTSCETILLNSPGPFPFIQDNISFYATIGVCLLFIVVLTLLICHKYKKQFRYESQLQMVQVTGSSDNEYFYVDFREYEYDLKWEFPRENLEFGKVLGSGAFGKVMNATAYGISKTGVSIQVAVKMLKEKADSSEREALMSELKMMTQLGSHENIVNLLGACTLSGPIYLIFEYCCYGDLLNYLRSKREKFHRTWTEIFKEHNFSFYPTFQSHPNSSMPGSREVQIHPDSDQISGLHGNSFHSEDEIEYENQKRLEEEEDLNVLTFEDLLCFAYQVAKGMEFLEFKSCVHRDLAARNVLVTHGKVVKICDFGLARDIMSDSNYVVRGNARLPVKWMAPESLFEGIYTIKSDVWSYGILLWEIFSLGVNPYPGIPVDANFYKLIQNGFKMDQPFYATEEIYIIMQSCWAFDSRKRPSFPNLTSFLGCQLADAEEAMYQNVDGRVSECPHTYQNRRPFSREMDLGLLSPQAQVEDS
Activated CDC42 kinase 1, sequence (Q07912 whole entry): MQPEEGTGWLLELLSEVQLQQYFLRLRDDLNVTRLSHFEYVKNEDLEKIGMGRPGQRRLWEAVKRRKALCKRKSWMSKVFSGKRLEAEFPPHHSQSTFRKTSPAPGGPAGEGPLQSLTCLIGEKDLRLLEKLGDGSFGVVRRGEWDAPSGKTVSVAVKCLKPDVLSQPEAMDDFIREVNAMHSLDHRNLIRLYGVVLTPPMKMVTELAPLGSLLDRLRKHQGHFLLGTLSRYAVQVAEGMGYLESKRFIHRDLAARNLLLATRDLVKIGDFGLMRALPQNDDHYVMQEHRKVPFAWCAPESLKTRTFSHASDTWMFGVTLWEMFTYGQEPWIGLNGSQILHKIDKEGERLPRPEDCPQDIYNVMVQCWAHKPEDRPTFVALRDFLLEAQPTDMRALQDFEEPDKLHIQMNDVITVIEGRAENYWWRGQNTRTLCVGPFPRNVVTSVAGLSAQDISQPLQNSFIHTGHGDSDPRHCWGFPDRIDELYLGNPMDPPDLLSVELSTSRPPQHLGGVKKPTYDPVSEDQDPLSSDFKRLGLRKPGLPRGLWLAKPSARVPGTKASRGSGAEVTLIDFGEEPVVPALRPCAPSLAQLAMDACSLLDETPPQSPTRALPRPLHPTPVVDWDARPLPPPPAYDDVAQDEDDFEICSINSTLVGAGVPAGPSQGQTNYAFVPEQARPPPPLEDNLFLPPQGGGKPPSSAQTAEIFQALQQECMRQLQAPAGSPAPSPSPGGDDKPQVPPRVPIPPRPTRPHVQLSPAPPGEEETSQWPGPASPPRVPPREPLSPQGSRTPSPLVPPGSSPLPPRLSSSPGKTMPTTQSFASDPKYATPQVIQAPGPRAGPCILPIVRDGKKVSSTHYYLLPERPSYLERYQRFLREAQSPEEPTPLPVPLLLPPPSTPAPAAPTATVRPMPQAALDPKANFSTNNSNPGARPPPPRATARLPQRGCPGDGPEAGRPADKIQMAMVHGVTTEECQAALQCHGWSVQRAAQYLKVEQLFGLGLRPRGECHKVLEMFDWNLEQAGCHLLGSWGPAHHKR
Cyclin-dependent kinase 7, sequence (P50613 whole entry): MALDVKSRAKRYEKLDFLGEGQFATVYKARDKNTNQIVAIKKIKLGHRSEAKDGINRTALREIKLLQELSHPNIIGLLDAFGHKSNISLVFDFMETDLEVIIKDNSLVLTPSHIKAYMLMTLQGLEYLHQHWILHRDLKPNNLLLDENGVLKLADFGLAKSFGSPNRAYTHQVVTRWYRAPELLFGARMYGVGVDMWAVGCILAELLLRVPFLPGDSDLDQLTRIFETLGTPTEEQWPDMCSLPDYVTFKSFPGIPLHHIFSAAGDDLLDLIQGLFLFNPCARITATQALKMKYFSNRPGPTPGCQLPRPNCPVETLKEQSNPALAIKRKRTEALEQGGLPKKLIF
SUMO-activating enzyme, sequence (Q9UBE0 whole entry): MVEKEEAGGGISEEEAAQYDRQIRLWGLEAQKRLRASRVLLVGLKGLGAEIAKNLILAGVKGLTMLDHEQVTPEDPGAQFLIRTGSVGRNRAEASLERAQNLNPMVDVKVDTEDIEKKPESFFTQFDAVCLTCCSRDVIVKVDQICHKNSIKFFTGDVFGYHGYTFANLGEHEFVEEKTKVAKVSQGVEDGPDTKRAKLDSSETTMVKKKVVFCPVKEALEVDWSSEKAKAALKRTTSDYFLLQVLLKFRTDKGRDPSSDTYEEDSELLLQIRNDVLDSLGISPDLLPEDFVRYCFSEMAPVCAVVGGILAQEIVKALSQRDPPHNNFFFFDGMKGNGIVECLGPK
SUMO-activating enzyme, sequence (Q9UBT2 whole entry): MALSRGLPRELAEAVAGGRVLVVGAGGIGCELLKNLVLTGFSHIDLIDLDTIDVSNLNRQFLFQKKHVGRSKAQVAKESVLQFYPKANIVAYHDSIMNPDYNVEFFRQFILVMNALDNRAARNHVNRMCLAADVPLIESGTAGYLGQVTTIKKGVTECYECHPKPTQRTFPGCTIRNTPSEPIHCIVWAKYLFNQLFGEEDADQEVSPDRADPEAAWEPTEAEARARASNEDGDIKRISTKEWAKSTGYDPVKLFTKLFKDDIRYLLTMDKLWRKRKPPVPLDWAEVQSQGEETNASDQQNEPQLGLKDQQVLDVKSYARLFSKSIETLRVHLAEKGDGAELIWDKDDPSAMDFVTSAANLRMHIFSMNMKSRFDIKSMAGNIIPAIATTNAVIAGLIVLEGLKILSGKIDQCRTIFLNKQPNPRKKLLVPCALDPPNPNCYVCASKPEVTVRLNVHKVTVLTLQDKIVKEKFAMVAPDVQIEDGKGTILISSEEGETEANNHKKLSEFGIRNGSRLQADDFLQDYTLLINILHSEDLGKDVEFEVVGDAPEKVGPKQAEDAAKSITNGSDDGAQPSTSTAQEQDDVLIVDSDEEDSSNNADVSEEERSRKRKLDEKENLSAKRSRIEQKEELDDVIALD
Dual specificity protein kinase CLK4, sequence (Q9HAZ1 whole entry): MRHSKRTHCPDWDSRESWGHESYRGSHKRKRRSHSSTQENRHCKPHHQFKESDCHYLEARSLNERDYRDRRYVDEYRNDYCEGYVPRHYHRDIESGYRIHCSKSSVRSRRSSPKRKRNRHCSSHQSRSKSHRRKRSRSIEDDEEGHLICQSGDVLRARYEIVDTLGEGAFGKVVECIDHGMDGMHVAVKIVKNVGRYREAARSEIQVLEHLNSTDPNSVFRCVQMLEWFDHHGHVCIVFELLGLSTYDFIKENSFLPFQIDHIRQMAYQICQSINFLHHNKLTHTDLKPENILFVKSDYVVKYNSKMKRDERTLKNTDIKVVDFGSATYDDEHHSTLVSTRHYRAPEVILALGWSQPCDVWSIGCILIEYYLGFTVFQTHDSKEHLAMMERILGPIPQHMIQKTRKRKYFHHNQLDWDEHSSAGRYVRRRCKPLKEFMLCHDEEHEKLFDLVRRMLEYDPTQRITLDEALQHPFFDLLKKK

What is called IC50 is the concentration that gives 50% inhibition. As to `CC(=O)N(C1=C(Cl)C(=O)c2ccccc2C1=O)c1ccc(C(=O)O)cc1`, the IC50 in assay [1] was 165 µM (active); on SUMO-activating enzyme it was 3.77 µM (active); in assay [2], 8.9 µM (active); in assay [3], 5.99 µM (active).
One may read the Ki as a measure of affinity in units of concentration, obtained from inhibition or displacement. For the molecule `Cc1ccc(-c2cc3nc(Br)cnc3[nH]2)cc1`, the Ki was > 6.31 µM (inactive) in assay [4]; > 5.01 µM (inactive) in assay [5]; > 3.98 µM (inactive) at Activated CDC42 kinase 1; > 6.31 µM (inactive) on Focal adhesion kinase 1; > 3.16 µM (inactive) in assay [6]; > 3.16 µM (inactive) in assay [7]. Also, the Ki was 0.158 µM (active) in assay [8], > 2.51 µM (inactive) in assay [9] and 0.1 µM (active) in assay [10].
As to `O=C1C=C(O)c2c(O)cc(O)c(O)c2C1=O`, on Large T antigen, the IC50 is > 100 µM (active).
Consider `CC1(C)C=C2C(=NN(c3ccccc3)C(N)=C2C#N)CO1`, for which, in assay [11], the IC50 was 0.0693 µM (active).
